Test results: patent US8410089B2, “Fused heterocyclic ring compound” (Takeda Pharmaceutical Company Limited, priority 2009, dated 2013)

What follows are molecules tested against T1, human GPR119 (Homo sapiens, UniProt Q8TDV5) (assay: Human GPR119 agonist activity with increase of intracellular cAMP concentration as index (CRE-luciferase reporter assay in hGPR119/CRE-luc/CHO(dhfr-) cells)). Conditions: 1 μM test compound, 2 hr incubation; luciferase activity with 10 μM N-[4-(methylsulfonyl)phenyl]-5-nitro-6-{4-[4-(trifluoromethoxy)phenoxy]piperidin-1-yl}pyrimidin-4-amine = 100%, DMSO = 0%.
T1 construct: expressed in transfected cells
T1 sequence (Q8TDV5 1-335): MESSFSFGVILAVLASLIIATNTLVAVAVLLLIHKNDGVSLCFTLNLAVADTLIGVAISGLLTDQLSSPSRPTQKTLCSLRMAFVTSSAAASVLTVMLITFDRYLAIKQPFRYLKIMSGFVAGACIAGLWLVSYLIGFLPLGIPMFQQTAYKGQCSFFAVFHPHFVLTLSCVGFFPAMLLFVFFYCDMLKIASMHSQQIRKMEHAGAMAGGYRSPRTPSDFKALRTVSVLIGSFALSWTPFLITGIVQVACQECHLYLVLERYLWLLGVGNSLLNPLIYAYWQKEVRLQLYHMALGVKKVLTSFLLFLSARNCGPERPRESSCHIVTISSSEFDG
Type: cell-based
Method: Evaluation of Human GPR119 Agonist Activity with Increase of Intracellular Camp Concentration as Index
(1) Construction of Expression Plasmid of Human GPR119 Gene
Using High Fidelity RNA PCR Kit (Takara Bio Inc.), human GPR119 gene was cloned by PCR using cDNA library synthesized from human brain mRNA (Clontech) as a template and synthetic DNA having the following sequence. Primer 1 and Primer 2 were is prepared by adding cleavage sites for Sal I and Nhe I based on the base sequence information of human GPR119 gene.
PCR was performed using Pyrobest DNA polymerase (Takara Bio Inc.). The obtained PCR product was cloned to pUC118 (Takara Bio Inc.), and the base sequence was […] and digested with restriction enzymes Sal I, Nhe I. The obtained DNA fragment was inserted into an animal cell expression vector pAKKO-111H (plasmid same as pAKKO-1.111H described in Biochem. Biophys. Acta, Hinuma, S. et al., 1219, 251-259 (1994)) similarly digested with Sal I, Nhe I, whereby an expression plasmid pAKKO-111H/hGPR119 was prepared.
(2) Construction of Reporter Plasmid
Zeocin resistance gene was cloned by PCR using plasmid pcDNA3.1/Zeo (Invitrogen) as a template, synthetic DNA having the following sequences wherein cleavage sites for restriction enzymes Sal I and BamH I are added to before and after a region containing SV40 Ori and a region containing SV40pA, which are located at the upstream and downstream of Zeocin resistance gene of this plasmid, as a primer set, and KOD polymerase (TOYOBO).
The obtained PCR product was inserted into pCR-BluntII (Invitrogen). A fragment containing a Zeocine resistance gene obtained by digesting the plasmid with restriction enzymes Sal I and BamH I was inserted into plasmid pGL3(R2.2)-Basic Vector (promega) similarly digested with Sal I and Bam HI to give Zeocin resistance plasmid pGL3(R2.2)/Zeocin-Basic Vector.
A reporter plasmid containing 4 cAMP responsive elements (CRE) connected in tandem was prepared using the following 5′-terminal phosphorylated synthetic DNA.
First, a DNA fragment containing a CRE sequence obtained by annealing CRE-Upper and CRE-Lower and elongating with KOD polymerase was inserted into pCR-BluntII to give pCR-BluntII-CRE. A fragment cleaved from pCR-BluntII-CRE with restriction enzymes Kpn I and Hind III was inserted into pGL3(R2.2)/Zeocin-Basic Vector similarly digested with Kpn I and Hind III to give reporter plasmid pGL3(R2.2)/Zeocin-CRE-luc.
(3) Introduction of Human GPR119 Gene and Reporter Gene into CHO(dhfr-) Cells and Acquirement of Expressing Cell
CHO(dhfr-) cells in MEMα (minimum essential medium alpha) (Nikken bio medical laboratory) medium containing 10% fetal bovine serum, 100 U/mL penicillin and 100 μg/mL streptomycin (Invitrogen) were detached by a treatment with trypsin-EDTA (ethylenediaminetetraacetic acid) (Invitrogen), the cells were washed with PBS (Phosphate-buffered saline), centrifuged (1000 rpm, 5 min) and suspended in PBS at a cell density of 1×10^7 cells/mL. Then, DNA was introduced into the cell by a gene pulser (Bio-Rad) under the following conditions. That is, 1×10^7 cells, plasmid pGL3(R2.2)/Zeocin-CRE-luc (15 μg), which was obtained in (2) and linearized with BssH II, and pAKKO-111H (5 μg) were added in a 0.4 cm gap cuvette, and the mixture was electroporated at voltage […], capacitance 950 μF. The cells were placed in the above-mentioned medium, cultured for 24 hr, and the cells were detached and centrifuged. The cells were diluted to 250 cells/well, plated in a 96 well plate (Corning) and cultivated in a CO2 incubator at 37° C. to give a transformant. Then, forskolin was added to the obtained transformant and a strain (CRE-luc/CHO(dhfr-) cell) that induces luciferase expression was selected. […]

SMILES	GPR119 agonist activity (%) at 1 μM concentration [%]
CC(C)c1noc(N2CCC(Oc3cc(N4CCc5cc(S(C)(=O)=O)ccc54)ncn3)CC2)n1 [Example 38, 1-[6-({1-[3-(1-methylethyl)-1,2,4-oxadiazol-5-yl]piperidin-4-yl}oxy)pyrimidin-4-yl]-5-(methylsulfonyl)-2,3-dihydro-1H-indole]	79
CCc1cnc(N2CCC(Oc3cc(N4CCc5cc(NC(=O)CO)ccc54)ncn3)CC2)nc1 [Example 56, N-[1-(6-{[1-(5-ethylpyrimidin-2-yl)piperidin-4-yl]oxy}pyrimidin-4-yl)-2,3-dihydro-1H-indol-5-yl]-2-hydroxyacetamide]	75
CC(C)c1noc(N2CCC(Oc3cc(N4CCc5cc(C(=O)N(C)CCO)ccc54)ncn3)CC2)n1 [Example 30, N-(2-hydroxyethyl)-N-methyl-1-[6-({1-[3-(1-methylethyl)-1,2,4-oxadiazol-5-yl]piperidin-4-yl}oxy)pyrimidin-4-yl]-2,3-dihydro-1H-indole-5-carboxamide]	78
CC(C)c1noc(N2CCC(N(c3cc(N4CCc5cc(S(C)(=O)=O)ccc54)ncn3)C(F)(F)F)CC2)n1 [Example 32, N-{1-[3-(1-methylethyl)-1,2,4-oxadiazol-5-yl]piperidin-4-yl}-6-[5-(methylsulfonyl)-2,3-dihydro-1H-indol-1-yl]-N-(trifluoromethyl)pyrimidin-4-amine]	92
Cc1cnc(N2CCC(N(c3cc(N4CCc5cc(S(C)(=O)=O)ccc54)ncn3)C(F)(F)F)CC2)nc1 [Example 73, N-[1-(5-methylpyrimidin-2-yl)piperidin-4-yl]-6-[5-(methylsulfonyl)-2,3-dihydro-1H-indol-1-yl]-N-(trifluoromethyl)pyrimidin-4-amine]	88
CC(C)SC(=O)N1CCC(Oc2cc(N3CCc4cc(S(C)(=O)=O)cc(F)c43)ncn2)CC1 [Example 62, S-(1-methylethyl) 4-({6-[7-fluoro-5-(methylsulfonyl)-2,3-dihydro-1H-indol-1-yl]pyrimidin-4-yl}oxy)piperidine-1-carbothioate]	83
CC(C)SC(=O)N1CCC(Oc2cc(N3CCc4cc(NC(=O)C5CCCO5)ccc43)ncn2)CC1 [Example 50, S-(1-methylethyl)4-{[6-(5-{[(2R)-tetrahydrofuran-2-ylcarbonyl]amino}-2,3-dihydro-1H-indol-1-yl)pyrimidin-4-yl]oxy}piperidine-1-carbothioate]	85
COCC(=O)Nc1ccc2c(c1)CCN2c1cc(OC2CCN(C(=O)OC(C)C)CC2)ncn1 [Example 59, isopropyl 4-[(6-{5-[(methoxyacetyl)amino]-2,3-dihydro-1H-indol-1-yl}pyrimidin-4-yl)oxy]piperidine-1-carboxylate]	77
CC(C)SC(=O)N1CCC(N(c2cc(N3CCc4cc(S(C)(=O)=O)ccc43)ncn2)C(F)(F)F)CC1 [Example 71, S-(1-methylethyl) 4-[{6-[5-(methylsulfonyl)-2,3-dihydro-1H-indol-1-yl]pyrimidin-4-yl}(trifluoromethyl)amino]piperidine-1-carbothioate]	82
CC(C)OC(=O)N1CCC(Oc2cc(N3CCc4cc(NC(=O)CO)ccc43)ncn2)CC1 [Example 55, isopropyl 4-[(6-{5-[(hydroxyacetyl)amino]-2,3-dihydro-1H-indol-1-yl}pyrimidin-4-yl)oxy]piperidine-1-carboxylate]	84
CC(C)(C)SC(=O)N1CCC(Oc2cc(N3CCc4cc(S(C)(=O)=O)ccc43)ncn2)CC1 [Example 36, S-tert-butyl 4-({6-[5-(methylsulfonyl)-2,3-dihydro-1H-indol-1-yl]pyrimidin-4-yl}oxy)piperidine-1-carbothioate]	87
CC(C)(C)OC(=O)N1CCC(Cn2ccc3c(N4CCc5cc(S(C)(=O)=O)ccc54)ncnc32)C1 (stereo in doubt) [Example 12, tert-butyl (3S)-3-({4-[5-(methylsulfonyl)-2,3-dihydro-1H-indol-1-yl]-7H-pyrrolo[2,3-d]pyrimidin-7-yl}methyl)pyrrolidine-1-carboxylate]	84
CN(CCO)C(=O)c1ccc2c(c1)CCN2c1cc(OC2CCN(C(=O)OC(C)(C)C)CC2)ncn1 [Example 20, tert-butyl 4-[(6-{5-[(2-hydroxyethyl)(methyl)carbamoyl]-2,3-dihydro-1H-indol-1-yl}pyrimidin-4-yl)oxy]piperidine-1-carboxylate]	88
CC(C)OC(=O)N1CCC(n2ccc3c(N4CCc5cc([N+](=O)[O-])ccc54)ncnc32)CC1 [Example 7, 1-methylethyl 4-[4-(5-nitro-2,3-dihydro-1H-indol-1-yl)-7H-pyrrolo[2,3-d]pyrimidin-7-yl]piperidine-1-carboxylate]	96
CCc1cnc(N2CCC(N(c3cc(N4CCc5cc(S(C)(=O)=O)ccc54)ncn3)C(F)(F)F)CC2)nc1 [Example 69, N-[1-(5-ethylpyrimidin-2-yl)piperidin-4-yl]-6-[5-(methylsulfonyl)-2,3-dihydro-1H-indol-1-yl]-N-(trifluoromethyl)pyrimidin-4-amine]	98
CSC(=O)N1CCC(Oc2cc(N3CCc4cc(S(C)(=O)=O)ccc43)ncn2)CC1 [Example 61, S-methyl 4-({6-[5-(methylsulfonyl)-2,3-dihydro-1H-indol-1-yl]pyrimidin-4-yl}oxy)piperidine-1-carbothioate]	85

Each molecule was assayed on male Wistar fatty rats (assay: Oral glucose tolerance test (OGTT), hypoglycemic action). Conditions: 10 mg/kg oral, OGTT in WF rats; decrease rate of AUC0-120min with control group as 100%; **p ≦ 0.01 vs control.
Type: in vivo, rat
Method: A hypoglycemic action of the compound of the present invention was examined in an oral glucose tolerance test (OGTT) using male Wistar fatty rats (WF rat, TAKEDA RABICS).
First, 22-week-old WF rats fasted overnight were divided into groups (6 per group), and blood samples were collected and used as plasma samples before drug administration (−60 min). Thereafter, 0.5% methylcellulose (control group) and a test compound was orally administered at 10 mg/kg. At 60 min after compound administration, each individual was loaded by oral administration of glucose at 1 g/kg, and the blood was drawn before glucose loading (0 min) and 10, 30, 60 and 120 min after loading. The plasma glucose concentration was measured using L type Waco Glu2 (Wako) and Hitachi automatic analyzer 7080 (Hitachi Instruments Service Co., Ltd.). The 0-120 min area under time curve (AUC0-120min) and the decrease rate when the control group was 100% were calculated from the plasma glucose values measured.

SMILES	blood glucose lowering rate (%)
CC(C)c1noc(N2CCC(Oc3cc(N4CCc5cc(S(C)(=O)=O)ccc54)ncn3)CC2)n1 [Example 38, 1-[6-({1-[3-(1-methylethyl)-1,2,4-oxadiazol-5-yl]piperidin-4-yl}oxy)pyrimidin-4-yl]-5-(methylsulfonyl)-2,3-dihydro-1H-indole]	24.8** %

Same assay, conditions: 22-week-old WF rats fasted overnight, 10 mg/kg oral, glucose 1 g/kg oral 60 min after compound; control group 32734.2

SMILES	plasma glucose AUC0-120 min [mg·min/dL]
CC(C)c1noc(N2CCC(Oc3cc(N4CCc5cc(S(C)(=O)=O)ccc54)ncn3)CC2)n1 [Example 38, 1-[6-({1-[3-(1-methylethyl)-1,2,4-oxadiazol-5-yl]piperidin-4-yl}oxy)pyrimidin-4-yl]-5-(methylsulfonyl)-2,3-dihydro-1H-indole]	24612.5
